Data reported in patent US8481540B2, “Inhibitors of bruton's tyrosine kinase” (Hoffmann-La Roche Inc., priority 2010, dated 2013).

Each compound was assayed on B cells in human blood (assay: Inhibition of B cell activation in whole blood measured by CD69 expression). Details: CD69-positive, CD20-positive cells after anti-IgM stimulation, human whole blood, 20 hours, read-out: Human Whole Blood.
Type: cell-based
Description: Inhibition of B Cell Activation in Whole Blood Measured by CD69 Expression
A procedure to test the ability of Btk inhibitors to suppress B cell receptor-mediated activation of B cells in human blood is as follows:
Human whole blood (HWB) is obtained from healthy volunteers, with the following restrictions: 24 hr drug-free, non-smokers. Blood is collected by venipuncture into Vacutainer tubes anticoagulated with sodium heparin. Test compounds are diluted to […] the desired starting drug concentration in PBS (20×), followed by three-fold serial dilutions in 10% DMSO in PBS to produce a nine point dose-response curve. 5.5 μl of each compound dilution is added in duplicate to a 2 ml96-well V bottom plate (Analytical Sales and Services, #59623-23); 5.5 μl of 10% DMSO in PBS is added to control and no-stimulus wells. HWB (100 μl) is added to each well, and after mixing the plates are incubated at 37 C, 5% CO2, 100% humidity for 30 minutes. Goat F(ab′)2 anti-human IgM (Southern Biotech, #2022-14) (10 μl of a […] solution, 50 μg/ml final concentration) is added to each well (except the no-stimulus wells) with mixing and the plates are incubated for an additional 20 hours.
At the end of the 20 hour incubation, samples are incubated with florescent-probe-labeled anti-bodies (15 μl PE Mouse anti-Human CD20, BD Pharmingen, #555623, and/or 20 ul APC Mouse anti-Human CD69, BD Pharmingen #555533) for 30 minutes, at 37 C, 5% CO2, 100% humidity. Included are induced control, unstained and single stains for compensation adjustments and initial voltage settings. Samples are then lysed with 1 ml of 1× Pharmingen Lyse Buffer (BD Pharmingen #555899), and plates are centrifuged at 1800 rpm for 5 minutes. Supernatants are removed via suction and the remaining pellets are lysed again with another 1 ml of 1× Pharmingen Lyse Buffer, and plates are spun down as before. Supernatants are aspirated and remaining pellets are washed in FACs buffer (PBS+1% FBS). After a final spin, the supernantants are removed and pellets are resuspended in 180 μl of FACs buffer. Samples are transferred to a 96 well plate suitable to be run on the HTS 96 well system on the BD LSR II flow cytometer.
Using appropriate excitation and emission wavelengths for the fluorophores used, data are acquired and percent positive cell values are obtained using Cell Quest Software. Results are initially analyzed by FACS analysis software (Flow Jo). […] The IC50 values are calculated using XLfit software version 3, equation 201.
Representative compound data for this assay are listed below in Table II.

SMILES	IC50
Cn1nc(-c2cccc(-n3ncc4cc(C(C)(C)C)cc(F)c4c3=O)c2CO)cc(Nc2ccc(C(=O)N3CCC(O)C3)cn2)c1=O (stereo not shown) [I-54, 6-tert-butyl-8-fluoro-2-(2-(hydroxymethyl)-3-(5-(5-(3-hydroxypyrrolidine-1-carbonyl)pyridin-2-ylamino)-1-methyl-6-oxo-1,6-dihydropyridazin-3-yl)phenyl)phthalazin-1(2H)-one]	0.104 µM
Cn1nc(-c2cccc(-n3ncc4cc(C(C)(C)C)cc(F)c4c3=O)c2CO)cc(Nc2ccc(C(=O)N3CCC(O)CC3)cn2)c1=O [I-55, 6-tert-butyl-8-fluoro-2-(2-(hydroxymethyl)-3-(5-(5-(4-hydroxypiperidine-1-carbonyl)pyridin-2-ylamino)-1-methyl-6-oxo-1,6-dihydropyridazin-3-yl)phenyl)phthalazin-1(2H)-one]	0.041 µM
CN1CCN(c2ccc(Nc3cc(-c4cccc(-n5ncc6cc(C(C)(C)C)cc(F)c6c5=O)c4CO)nn(C)c3=O)nc2)CC1 [I-56, 6-tert-Butyl-8-fluoro-2-(2-hydroxymethyl-3-{1-methyl-5-[5-(4-methyl-piperazin-1-yl)-pyridin-2-ylamino]-6-oxo-1,6-dihydro-pyridazin-3-yl}-phenyl)-2H-phthalazin-1-one]	0.017 µM
Cn1nc(-c2cccc(-n3ncc4cc(C(C)(C)C)cc(F)c4c3=O)c2CO)cc(Nc2ccc(C3CCNCC3)cn2)c1=O [I-61, 6-tert-butyl-8-fluoro-2-(2-(hydroxymethyl)-3-(1-methyl-6-oxo-5-(5-(piperidin-4-yl)pyridin-2-ylamino)-1,6-dihydropyridazin-3-yl)phenyl)phthalazin-1(2H)-one]	0.074 µM
Cn1nc(-c2cccc(-n3ncc4cc(C(C)(C)C)cc(F)c4c3=O)c2CO)cc(Nc2ccc(C3CCN(S(C)(=O)=O)CC3)cn2)c1=O [I-62, 6-tert-butyl-8-fluoro-2-(2-(hydroxymethyl)-3-(1-methyl-5-(5-(1-(methylsulfonyl)-piperidin-4-yl)pyridin-2-ylamino)-6-oxo-1,6-dihydropyridazin-3-yl)phenyl)phthalazin-1(2H)-one]	0.144 µM
CC(=O)N1CCC(c2ccc(Nc3cc(-c4cccc(-n5ncc6cc(C(C)(C)C)cc(F)c6c5=O)c4CO)nn(C)c3=O)nc2)CC1 [I-63, 2-(3-(5-(5-(1-acetylpiperidin-4-yl)pyridin-2-ylamino)-1-methyl-6-oxo-1,6-dihydropyridazin-3-yl)-2-(hydroxymethyl)phenyl)-6-tert-butyl-8-fluorophthalazin-1(2H)-one]	0.189 µM
Cn1nc(-c2cccc(-n3ncc4cc(C(C)(C)C)cc(F)c4c3=O)c2CO)cc(Nc2ccc(N3CCC(C)(O)CC3)cn2)c1=O [I-64, 6-tert-butyl-8-fluoro-2-(3-(5-(5-(4-hydroxy-4-methylpiperidin-1-yl)pyridin-2-ylamino)-1-methyl-6-oxo-1,6-dihydropyridazin-3-yl)-2-(hydroxymethyl)-phenyl)phthalazin-1(2H)-one]	0.066 µM
Cn1nc(-c2cccc(-n3ncc4cc(C(C)(C)C)cc(F)c4c3=O)c2CO)cc(Nc2ccc(N3CCC(O)CC3)cn2)c1=O [I-65, 6-tert-butyl-8-fluoro-2-(2-(hydroxymethyl)-3-(5-(5-(4-hydroxypiperidin-1-yl)pyridin-2-ylamino)-1-methyl-6-oxo-1,6-dihydropyridazin-3-yl)phenyl)phthalazin-1(2H)-one]	0.062 µM
CN1C[C@H]2CC[C@@H](C1)N2c1ccc(Nc2cc(-c3cccc(-n4ncc5cc(C(C)(C)C)cc(F)c5c4=O)c3CO)nn(C)c2=O)nc1 [I-66, 6-tert-Butyl-8-fluoro-2-(2-hydroxymethyl-3-{1-methyl-5-[5-((1R,5S)-3-methyl-3,8-diaza-bicyclo[3.2.1]oct-8-yl)-pyridin-2-ylamino]-6-oxo-1,6-dihydro-pyridazin-3-yl}-phenyl)-2H-phthalazin-1-one]	0.023 µM
CN1CCC(c2ccc(Nc3cc(-c4cccc(-n5ccc6cc(C(C)(C)C#N)cc(F)c6c5=O)c4CO)nn(C)c3=O)nc2)CC1 [I-71, 2-(8-Fluoro-2-{2-hydroxymethyl-3-[1-methyl-5-(1′-methyl-1′,2′,3′,4′,5′,6′-hexahydro-[3,4′]bipyridinyl-6-ylamino)-6-oxo-1,6-dihydro-pyridazin-3-yl]-phenyl}-1-oxo-1,2-dihydro-isoquinolin-6-yl)-2-methyl-propionitrile]	0.032 µM
Cn1nc(Nc2cc(-c3cccc(-n4ccc5cc(C(C)(C)C#N)cc(F)c5c4=O)c3CO)nn(C)c2=O)cc1CN1CCC1 [I-72, 2-(2-{3-[5-(5-Azetidin-1-ylmethyl-1-methyl-1H-pyrazol-3-ylamino)-1-methyl-6-oxo-1,6-dihydro-pyridazin-3-yl]-2-hydroxymethyl-phenyl}-8-fluoro-1-oxo-1,2-dihydro-isoquinolin-6-yl)-2-methyl-propionitrile]	0.056 µM
Cn1nc(-c2cccc(-n3ccc4cc(C(C)(C)C#N)cc(F)c4c3=O)c2CO)cc(Nc2ccc(OC(C)(C)CN3CCC3)cn2)c1=O [I-73, 2-[2-(3-{5-[5-(2-Azetidin-1-yl-1,1-dimethyl-ethoxy)-pyridin-2-ylamino]-1-methyl-6-oxo-1,6-dihydro-pyridazin-3-yl}-2-hydroxymethyl-phenyl)-8-fluoro-1-oxo-1,2-dihydro-isoquinolin-6-yl]-2-methyl-propionitrile]	0.03 µM
CN1CCn2nc(Nc3cc(-c4cccc(-n5ccc6cc(C(C)(C)C#N)cc(F)c6c5=O)c4CO)nn(C)c3=O)cc2C1 [I-74, 2-(8-Fluoro-2-{2-hydroxymethyl-3-[1-methyl-5-(5-methyl-4,5,6,7-tetrahydro-pyrazolo[1,5-a]pyrazin-2-ylamino)-6-oxo-1,6-dihydro-pyridazin-3-yl]-phenyl}-1-oxo-1,2-dihydro-isoquinolin-6-yl)-2-methyl-propionitrile]	0.034 µM
CN(C)C(=O)c1ccc(Nc2cc(-c3cccc(-n4ccc5cc(C(C)(C)C#N)cc(F)c5c4=O)c3CO)nn(C)c2=O)nc1 [I-75, 6-(6-{3-[6-(Cyano-dimethyl-methyl)-8-fluoro-1-oxo-1H-isoquinolin-2-yl]-2-hydroxymethyl-phenyl}-2-methyl-3-oxo-2,3-dihydro-pyridazin-4-ylamino)-N,N-dimethyl-nicotinamide]	0.18 µM
CN1CCC[C@H]1c1ccc(Nc2cc(-c3cccc(-n4ccc5cc(C(C)(C)C#N)cc(F)c5c4=O)c3CO)nn(C)c2=O)nc1 [I-76, 2-[8-Fluoro-2-(2-hydroxymethyl-3-{1-methyl-5-[5-((S)-1-methyl-pyrrolidin-2-yl)-pyridin-2-ylamino]-6-oxo-1,6-dihydro-pyridazin-3-yl}-phenyl)-1-oxo-1,2-dihydro-isoquinolin-6-yl]-2-methyl-propionitrile]	0.051 µM
CN1CC[C@@H](c2ccc(Nc3cc(-c4cccc(-n5ccc6cc(C(C)(C)C#N)cc(F)c6c5=O)c4CO)nn(C)c3=O)nc2)C1 [I-77, 2-[8-Fluoro-2-(2-hydroxymethyl-3-{1-methyl-5-[5-((S)-1-methyl-pyrrolidin-3-yl)-pyridin-2-ylamino]-6-oxo-1,6-dihydro-pyridazin-3-yl}-phenyl)-1-oxo-1,2-dihydro-isoquinolin-6-yl]-2-methyl-propionitrile]	0.123 µM
Cn1nc(-c2cccc(N3CCc4cc(C(C)(C)C#N)cc(F)c4C3=O)c2CO)cc(Nc2ccc(OC(C)(C)CN3CCC3)cn2)c1=O [I-78, 2-[2-(3-{5-[5-(2-azetidin-1-yl-1,1-dimethyl-ethoxy)-pyridin-2-ylamino]-1-methyl-6-oxo-1,6-dihydro-pyridazin-3-yl}-2-hydroxymethyl-phenyl)-8-fluoro-1-oxo-1,2,3,4-tetrahydro-isoquinolin-6-yl]-2-methyl-propionitrile]	0.084 µM
Cn1nc(-c2cccc(-n3ccc4cc(C(C)(C)C#N)cc(F)c4c3=O)c2CO)cc(Nc2cc3n(n2)CCN(C2COC2)C3)c1=O [I-79, 2-(8-Fluoro-2-{2-hydroxymethyl-3-[1-methyl-5-(5-oxetan-3-yl-4,5,6,7-tetrahydro-pyrazolo[1,5-a]pyrazin-2-ylamino)-6-oxo-1,6-dihydro-pyridazin-3-yl]-phenyl}-1-oxo-1,2-dihydro-isoquinolin-6-yl)-2-methyl-propionitrile]	0.06 µM

Same assay, conditions: Homo sapiens, 20 h, read-out: Human Whole Blood

SMILES	IC50
CN1CCC(c2ccc(Nc3cc(-c4cccc(-n5ncc6cc(C(C)(C)C)cc(F)c6c5=O)c4CO)nn(C)c3=O)nc2)CC1 [I-67, 6-tert-Butyl-8-fluoro-2-{2-hydroxymethyl-3-[1-methyl-5-(1′-methyl-1′,2′,3′,4′,5′,6′-hexahydro-[3,4]bipyridinyl-6-ylamino)-6-oxo-1,6-dihydro-pyridazin-3-yl]-phenyl}-2H-phthalazin-1-one]	0.004 µM
